This note sets out measurements from PubChem BioAssay AID1996.

In brackets after ≈: the same amount, converted by molar mass.

The conditions of this data set: buffer; pH 7.4; 200.0 µM.
`C=C1c2cc(C)c(C)cc2NC(=O)N1c1ccccc1` displayed a kinetic solubility of 24.4 µg/mL (≈ 92.3 µM). In the case of `CC(C)(C)c1ccc(C(=O)C2CCCN(C3CCC3)C2)cc1` (stereo not given), the solubility (kinetic) turned out to be 37.9 µg/mL (≈ 127 µM). The compound `O=C1CCC(C(=O)OCC(=O)Nc2ccc(Cl)cc2C(F)(F)F)=NN1` registered a solubility (kinetic) greater than 56.7 µg/mL. In the case of `CCOC(=O)C(=CNc1cscc1S(=O)(=O)C(C)C)C(=O)OCC` it was 38.9 µg/mL (≈ 104 µM); in that of `OCCN1CCN(c2nc(-c3ccccc3O)nc3ccccc23)CC1`, 37.8 µg/mL (≈ 108 µM). For the compound `O=C(Nc1ccccc1F)c1cc(-c2ccco2)nc2ccccc12`, the solubility (kinetic) is 0.7 µg/mL (≈ 2.11 µM).

With `NS(=O)(=O)c1ccc(CNC(=O)C2CCCN2C(=O)c2cccs2)cc1` (stereo not given), the kinetic solubility was greater than 59 µg/mL.

`O=C(NCCCn1ccnc1)C(=O)NC1CCCCC1` displayed a kinetic solubility greater than 41.8 µg/mL.

`CCN(CC)c1ccc2c(O)cc(=O)oc2c1`: the kinetic solubility was greater than 35 µg/mL. As to `Cc1nc(NC(=O)COC(=O)CNC(=O)c2ccco2)c(Cl)cc1Cl`, the kinetic solubility was greater than 57.9 µg/mL. The compound `O=C(CCCNC(=O)c1ccc(Cl)cc1)Nc1ncccc1O` yielded a kinetic solubility greater than 50.1 µg/mL.

Compound `CN(C)S(=O)(=O)N1CCN(C(=O)c2ccc3c(c2)OCO3)CC1` showed a kinetic solubility greater than 51.2 µg/mL. Compound `O=C1COc2ccccc2N1Cc1ccc(Cl)cc1` showed a solubility (kinetic) of 10.3 µg/mL (≈ 37.6 µM). In the case of `Cc1ccc(NC(=O)CN2CCOCC2)cc1C` it was 35.1 µg/mL (≈ 141 µM). In the case of `Cc1nc(C)c(-c2csc(Nc3ccccn3)n2)s1` it was 10.2 µg/mL (≈ 35.4 µM). With `O=C(Nc1cccnc1Cl)c1cc2ccccc2o1`, the kinetic solubility was determined as 7.3 µg/mL (≈ 26.8 µM). The compound `COC(=O)c1cc(S(=O)(=O)N2CCC(C)CC2)cn1C` returned a kinetic solubility of 41.9 µg/mL (≈ 139 µM).

On to `ON=C1c2ccccc2-c2ccccc21`, for which the kinetic solubility came to 1.3 µg/mL (≈ 6.66 µM).

With `CN(C)/C=C/C(=O)c1c(F)cccc1F`, the solubility (kinetic) was determined as 31.4 µg/mL (≈ 149 µM). Consider `Brc1ccc(C2NCCS2)cc1` (stereo not given), for which the solubility (kinetic) stood at 29.3 µg/mL (≈ 120 µM). Then `CCCN1CNc2c(c(=O)[nH]c(=S)n2-c2ccccc2Cl)C1`, with greater than 50.5 µg/mL.

In the case of `COc1ccc(NC(=O)COC(=O)C2CC3C=CC2C3)cc1` (stereo not given), the solubility (kinetic) is greater than 45.2 µg/mL. In the case of `O=C(CNC(=O)c1ccccc1)Oc1cccc(Cl)c1` it was greater than 43.5 µg/mL; in that of `CCOC(=O)/C(C#N)=C/Nc1ccsc1C(C)=O`, 3.5 µg/mL (≈ 13.2 µM). Then `CC(C)CCNc1nc2ccccc2nc1NS(=O)(=O)c1cccs1`, with 7.3 µg/mL (≈ 19.4 µM); and `CC(C)(C)NC(=O)c1ccccc1-c1nc2ccccc2s1`, with 35.6 µg/mL (≈ 115 µM); and `CC(=O)NCCC(=O)Nc1nc(-c2ccc3ccccc3c2)cs1`, with 6.5 µg/mL (≈ 19.2 µM).

In the case of `COc1ccc(Cl)cc1N1C(=N)SCC1=O`, the solubility (kinetic) is greater than 38.5 µg/mL.

The compound `Cc1ccc(NC(=O)CN2CCOCC2)cc1Cl` returned a kinetic solubility greater than 40.3 µg/mL. In the case of `CCOc1ccc(S(=O)(=O)N2CCN(C(=O)c3ccco3)CC2)cc1` it was greater than 54.7 µg/mL; in that of `CCOC(=O)c1c(C)c2c(=O)[nH]cnc2n1-c1ccccc1`, 2.2 µg/mL (≈ 7.4 µM); in that of `O=C(c1cc(-c2cccc(Cl)c2)on1)N1CCOCC1`, 20.1 µg/mL (≈ 68.7 µM). For `CC(=O)O.CN1CCCC(CN2c3ccccc3Sc3ccccc32)C1` (stereo not given), the kinetic solubility was greater than 55.6 µg/mL.

In turn, `CCCCOC(=O)N1CCOCCOCCOCC1` returned a solubility (kinetic) of 40.2 µg/mL (≈ 146 µM). As for `CC(Oc1ccc2c(-c3ccccc3)cc(=O)oc2c1)C(=O)NC(Cc1c[nH]c2ccccc12)C(=O)O` (stereo not given), the kinetic solubility is greater than 74.5 µg/mL. Then `Cc1ccc2nsnc2c1S(=O)(=O)Nc1ccccc1C(=O)O`, with greater than 52.4 µg/mL; and `CN1CC(C(=O)O)Cc2c1ccc1ccccc21` (stereo not given), with 31.7 µg/mL (≈ 131 µM).

As to `CCOc1ncccc1C(=O)NCCc1ccc(Cl)cc1`, the solubility (kinetic) was 33.7 µg/mL (≈ 111 µM). In the case of `CS(=O)(=O)Nc1ccccc1N=C(c1ccccc1)c1ccccc1` it was 23.2 µg/mL (≈ 66.2 µM). For `C/C=C/n1ccnc1CC(O)(c1ccccc1)c1ccc(C)cc1` (stereo not given), the solubility (kinetic) came out at 3.3 µg/mL (≈ 10.4 µM). `Cn1c(N2CCOCC2)c(C#N)c2ccccc21` gave a kinetic solubility of 17 µg/mL (≈ 70.5 µM).

As to `CC(C)(C)NC(=O)[C@H]1CC[C@H]2[C@@H]3CC[C@H]4NC(=O)C=C[C@]4(C)[C@H]3CC[C@]12C`, the solubility (kinetic) turned out to be 52.8 µg/mL (≈ 142 µM). For the compound `COc1ccccc1/C=C/CN1CCSCC1`, the solubility (kinetic) was greater than 37.4 µg/mL. Then `O=c1c2cc(Br)ccc2[nH]c(=S)n1Cc1ccccc1`, with less than 0.4 µg/mL.

Take `O=C(NC(=S)N1CCOCC1)c1ccc(F)cc1`: the solubility (kinetic) was greater than 40.2 µg/mL.

`CC(=O)c1cnc(-c2ccccn2)s1`: the kinetic solubility came to 28.3 µg/mL (≈ 139 µM). Then `COC(=O)c1ccc(CO/N=C/c2ccc(OC)cc2)o1`, with 13.9 µg/mL (≈ 48 µM); and `CCCC(=O)Nc1ccc2c(c1)nc1n2CCN(CCOC)C1`, with greater than 47.5 µg/mL.

Compound `COc1ccccc1NC(=O)c1cc(OC)c(OC)cc1[N+](=O)[O-]` displayed a solubility (kinetic) greater than 49.8 µg/mL. In turn, `O=C1CCCc2c1nc(-c1ccc([N+](=O)[O-])cc1)n2O` had a kinetic solubility greater than 41 µg/mL. `COc1ccc(CNC(=O)CCC(=O)c2ccc(F)cc2)cc1OC` gave a solubility (kinetic) greater than 51.8 µg/mL. Compound `COc1c(C(=O)Nc2ccc(Br)cn2)ccc2ccccc12` gave a kinetic solubility of less than 0.4 µg/mL. `COc1ccc(N2C(=O)c3cccc4cccc(c34)C2=O)cc1` showed a solubility (kinetic) of less than 0.6 µg/mL.

In turn, `O=C(/C=C/c1ccc2c(c1)OCO2)NC1CCCC1` came in with a solubility (kinetic) of 31.4 µg/mL (≈ 121 µM). Then `CN(CC(=O)N1CCN(Cc2ccccc2)CC1)C(=O)Cc1ccc(Cl)c(Cl)c1`, with 61.7 µg/mL (≈ 142 µM); and `Cn1c(/C(C#N)=C/c2ccc(O)cc2)nc2ccccc21`, with 5.5 µg/mL (≈ 20 µM). On to `CC(C)c1ccc(C(C)NC(=S)NC2CCCCC2)cc1` (stereo not given), for which the kinetic solubility is 1.9 µg/mL (≈ 6.24 µM). In the case of `Cc1cc(OCC(=O)N2CCCN(C)CC2)ccc1Cl` it was greater than 44.5 µg/mL; in that of `CC(Nc1ccccc1)c1ccncc1` (stereo not given), greater than 29.7 µg/mL; in that of `COc1ccc(OC)c(N2C(=O)CC(NNC(=O)c3ccc4c(c3)OCO4)C2=O)c1` (stereo not given), greater than 62 µg/mL.

The compound `C=CCn1c(C(C)C)nc2ccccc21.Cl` yielded a solubility (kinetic) greater than 35.5 µg/mL. Then `Cc1ccc(C)c(CNC(=O)Nc2ccccc2)c1`, with 0.8 µg/mL (≈ 3.15 µM); and `COc1ccc(NC(=O)CNC(=O)c2ccco2)cc1S(=O)(=O)Nc1cc(C)ccc1Br`, with 17.1 µg/mL (≈ 32.7 µM). Regarding `O=C(Nc1ccc(S(=O)(=O)NC2=NCCCCC2)cc1)c1ccc(Cl)c([N+](=O)[O-])c1`, the solubility (kinetic) came out at 22 µg/mL (≈ 48.8 µM). The compound `CC(=O)Nc1cccc(Oc2nc(-c3ccccn3)nc3ccccc23)c1` returned a kinetic solubility of 0.8 µg/mL (≈ 2.24 µM). In the case of `Cc1csc(SCC(=O)NC(C)C2CC3CCC2C3)n1` (stereo not given) it was greater than 46.6 µg/mL; in that of `Clc1ccccc1N=C1SCCS1`, 18.2 µg/mL (≈ 79.2 µM). Then `C=C(C)n1c(=O)n(Cc2ccc(C)cc2)c2ccccc21`, with 16.3 µg/mL (≈ 58.6 µM); and `CS(=O)(=O)c1cccc(S(=O)(=O)N2CCCCCC2)c1`, with greater than 47.6 µg/mL; and `CN(CC(=O)Nc1cccc(C(F)(F)F)c1)Cc1ccccc1`, with 20.8 µg/mL (≈ 64.5 µM). Then `O=S(=O)(NC1CCCCCC1)c1cccc(Cl)c1`, with 40.6 µg/mL (≈ 141 µM); and `O=C(O)/C(=C/c1ccco1)NC(=O)c1ccc(Br)o1`, with greater than 48.9 µg/mL; and `CC(=O)N(c1ccc(Cl)cc1)c1cn(C(C)=O)c2ccccc12`, with greater than 49 µg/mL. The compound `O=C(CN1CCCCCC1)Nc1cccc([N+](=O)[O-])c1` registered a solubility (kinetic) greater than 41.6 µg/mL. In the case of `C=CCn1cccc(C(=O)Nc2ccc(C)c(C)c2)c1=O` it was 33.4 µg/mL (≈ 118 µM).

In general, solubility (kinetic) refers to solubility judged after dilution from a stock solution rather than from solid.
